In brackets after ≈: the same amount, converted by molar mass. Read-outs that look alike come from different tables or passages of the source.
Legend:
[1] = system: Sensitive Strains: Candida albicans C141, Candida sp. C2, Candida sp. C109, Candida parapsilosis C67, Candida tropicalis C112, Torulopsis glabrata C95, Candida …; type: cell-based, Candida spp., Sacchararomyces; details: geometric mean of MICs against sensitive strains, YNB pH 5.4, 37° C., 48 hours, lowest concentration preventing visible growth
Procedure: (§1) In vitro anti-fungal activity was determined in microtiter minimum inhibitory concentration (MIC) tests using Yeast Nitrogen Broth (YNB without amino acids, Difco., Detroit, Mich.) at pH 5.4. Yeasts were grown overnight in Sabouraud Dextrose Broth at 28° C. with shaking, and concentrations adjusted in sterile saline using a spectrophoptometer at 540 mμ. Compounds were dissolved in various vehicles and diluted in media to twice the final concentrations. The Cetus Pro/Pette system was used to serially dilute 50 μl in round bottom 96 well plates (Falcon, Lincoln Park, N.J.). The turbidometrically adjusted yeast suspensions were diluted 1:3,000 in YNB. These dilutions when added to the wells, produced a final inoculum of 3×10^3 /ml. Plates were incubated at 37° C. for 48 hours. MICs were defined as the lowest concentrations of compound that prevented visible growth. MICs were taken against the following organisms and expressed in the table above as the geometric mean.
(§2) MIC-R and MIC-S mean respectively MICs taken against resistant and sensitive strains.
Candida parapsilosis C67
Candida tropicalis C112
Torulopsis glabrata C95
Candida pseudotropicalis C967
Candida guillermondii C137
Sacchararomyces mutant C147

[2] = system: Resistant Strains: Candida albicans C79, C6, C8, C31, C54, C70, C104, C138, C140; Candida stellatoidea C45; assay: microtiter minimum inhibitory concentration (MIC) test, resistant strains (MIC-R); type: cell-based; details: geometric mean of MICs against resistant strains, YNB pH 5.4, 37° C., 48 hours, lowest concentration preventing visible growth
Procedure: as §1, §2
Candida stellatoidea C45

CCCCCCCCCCCCNC(=O)C(NC(=O)C(N)C(C)Cn1ccnc1)C1OC(n2ccc(=O)[nH]c2=O)C(O)C1O (mixture of isomers) [Compound 11]
MIC-S [1]: 85 µg/mL | MIC-R [2]: 316 µg/mL

CCCCCCCCCCCCNC(=O)C(NC(=O)C(N)Cc1csc2ccc(O)cc12)C1OC(n2ccc(=O)[nH]c2=O)C(O)C1O (single isomer, unassigned) [Compound 21]
MIC-S [1]: 158 µg/mL (≈ 234 µM) | MIC-R [2]: 208 µg/mL (≈ 309 µM)

CCCCCCCCCCCCNC(=O)C(NC(=O)C(N)Cc1csc2ccc(O)cc12)C1OC(n2ccc(=O)[nH]c2=O)C(O)C1O (single isomer, unassigned) [Compound 22]
MIC-S [1]: 158 µg/mL (≈ 234 µM) | MIC-R ([2]; listed as drawing 80): > 256 µg/mL

CCCCNC(=O)[C@@H](NC(=O)[C@@H](N)Cc1c[nH]c2ccc(O)cc12)[C@H]1O[C@@H](n2ccc(=O)[nH]c2=O)[C@H](O)[C@@H]1O [Compound 1]
MIC-S [1]: > 4096 µg/mL | MIC-R [2]: > 4096 µg/mL

CCCCCCCCCCCCNC(=O)C(NC(=O)C(N)Cc1c[nH]c2ccc(O)cc12)C1OC(n2ccc(=O)[nH]c2=O)C(O)C1O (centres unmarked) [Compound 3, 6'-Dodecylamido-5-N-(5-hydroxytryptophanyl)UPOC]
MIC-S [1]: 478 µg/mL (≈ 728 µM) | MIC-R [2]: 23 µg/mL (≈ 35 µM)

CCCCCCCCCCCCCCCCCCNC(=O)C(NC(=O)C(N)Cc1c[nH]c2ccc(O)cc12)C1OC(n2ccc(=O)[nH]c2=O)C(O)C1O (centres unmarked) [Compound 4]
MIC-S [1]: > 2048 µg/mL | MIC-R [2]: > 2048 µg/mL

CCCCCCCCCCCCCCNC(=O)C(NC(=O)C(N)Cc1c[nH]c2ccc(O)cc12)C1OC(n2ccc(=O)[nH]c2=O)C(O)C1O (centres unmarked) [Compound 9]
MIC-S [1]: 147 µg/mL (≈ 215 µM) | MIC-R [2]: > 256 µg/mL

CCCCCCCCCCCCNC(=O)C(NC(=O)C(N)C(C)Cc1ccc(O)cn1)C1OC(n2ccc(=O)[nH]c2=O)C(O)C1O (centres unmarked) [Compound 10]
MIC-S [1]: 478 µg/mL (≈ 739 µM) | MIC-R [2]: 147 µg/mL (≈ 227 µM)

CCCCCCCCCCCCNC(=O)C(NC(=O)[C@@H](N)C(C)Cc1ccc(OC)cc1)C1OC(n2ccc(=O)[nH]c2=O)C(O)C1O (some centres unmarked) [Compound 12, 6'-Dodecylamido-5-N-(2-S-amino-3-R,S-methyl-4-p-methoxyphenyl-butyryl) UPOC]
MIC-S [1]: 208 µg/mL (≈ 315 µM) | MIC-R [2]: 28 µg/mL (≈ 42.4 µM)

CCCCCCCCCCNC(=O)C(NC(=O)C(N)Cc1c[nH]c2ccc(O)cc12)C1OC(n2ccc(=O)[nH]c2=O)C(O)C1O (centres unmarked) [Compound 13]
MIC-S [1]: 388 µg/mL (≈ 617 µM) | MIC-R [2]: 181 µg/mL (≈ 288 µM)

CCCCCCCCCCCCN(OCc1ccccc1)C(=O)C(NC(=O)C(N)Cc1c[nH]c2ccc(O)cc12)C1OC(n2ccc(=O)[nH]c2=O)C(O)C1O (centres unmarked) [Compound 14]
MIC-S [1]: 119 µg/mL (≈ 156 µM) | MIC-R [2]: 28 µg/mL (≈ 36.7 µM)

CC(C)=CCCC(C)=CCCC(C)=CCNC(=O)C(NC(=O)C(N)Cc1c[nH]c2ccc(O)cc12)C1OC(n2ccc(=O)[nH]c2=O)C(O)C1O (centres unmarked) [Compound 15]
MIC-S [1]: 362 µg/mL (≈ 523 µM) | MIC-R [2]: 143 µg/mL (≈ 206 µM)

CCCCCCCCCCCCNC(=O)C(NC(=O)C(N)CCc1ccc2ccccc2n1)C1OC(n2ccc(=O)[nH]c2=O)C(O)C1O (centres unmarked) [Compound 16]
MIC-S ([1]; listed as drawing 72): 239 µg/mL (≈ 358 µM) | MIC-R ([2]; listed as drawing 72): 294 µg/mL (≈ 441 µM)

CCCCCCCCCCCCNC(=O)C(NC(=O)C(N)CCc1ccc2ccccc2n1)C1OC(n2ccc(=O)[nH]c2=O)C(O)C1O (centres unmarked) [Compound 17]
MIC-S ([1]; listed as drawing 73): 158 µg/mL (≈ 237 µM) | MIC-R ([2]; listed as drawing 73): 21 µg/mL (≈ 31.5 µM)

CCCCCCCCCCCCN(O)C(=O)C(NC(=O)C(N)Cc1c[nH]c2ccc(O)cc12)C1OC(n2ccc(=O)[nH]c2=O)C(O)C1O (centres unmarked) [Compound 18]
MIC-S [1]: 239 µg/mL (≈ 355 µM) | MIC-R [2]: 39 µg/mL (≈ 58 µM)

NC(Cc1c[nH]c2ccc(O)cc12)C(=O)NC(C(=O)NCc1ccccc1)C1OC(n2ccc(=O)[nH]c2=O)C(O)C1O (centres unmarked) [Compound 20]
MIC-S [1]: > 256 µg/mL | MIC-R [2]: > 256 µg/mL

CCCCCCCCCCCCNC(=O)C(NC(=O)C(N)Cc1ccc(OC)cc1)C1OC(n2ccc(=O)[nH]c2=O)C(O)C1O (centres unmarked) [Compound 23]
MIC-S [1]: 56 µg/mL (≈ 88.6 µM) | MIC-R [2]: 9.8 µg/mL (≈ 15.5 µM)

CCCCCCCCCCCCNC(=O)C(NC(=O)C(N)c1ccccc1)C1OC(n2ccc(=O)[nH]c2=O)C(O)C1O (centres unmarked) [Compound 24]
MIC-S [1]: 194 µg/mL (≈ 330 µM) | MIC-R [2]: 18 µg/mL (≈ 30.6 µM)

CCCCCCCCCCCCNC(=O)C(NC(=O)C(N)Cc1cn(C)c2ccccc12)C1OC(n2ccc(=O)[nH]c2=O)C(O)C1O (centres unmarked) [Compound 25]
MIC-S [1]: > 256 µg/mL | MIC-R [2]: > 256 µg/mL

From patent US5618793A, “Nikkomycin analogs” (Schering Corporation, priority 1995, dated 1997)
